Data published in patent US8138196B2, “Antifungal wallboards and building materials and methods for the production thereof” (Syngenta Crop Protection, Inc., priority 2005, dated 2012).
“And” between values parts separate entries of the source, which are not always exact repeats. Equal entries are not always repeated.

Key:
Assay type in all cases: cell-based
Coniophora puteana = assay: radial mycelial growth on fungicide amended agar; conditions: estimated from graph of % activity (radial mycelial growth relative to agar without fungicide) against concentration
Protocol: Stem cultures of Coniophora puteana were produced by propagating the fungus on a growth medium comprising yeast extract (10 g), glycerol (20 ml), magnesium sulphate (0.5 g), sodium nitrate (6.0 g), potassium chloride (0.5 g), potassium dihydrogen orthophosphate (1.5 g), agar (20 g) in distilled water (980 ml).
Fungicides were added at levels of 5000, 100, 10, 1, 0.1 and 0.01 mg fungicide/litre of growth medium (described above) to give […] different growth medium compositions for each fungicide. Mycelial plugs were taken from the stem cultures and transferred upside down onto petri dishes containing the fungicide amended agar.
The radial mycelial growth of the fungus was measured individually on all test petri dishes. The results are expressed as % activity relative to the radial growth on agar without fungicide.
For each fungicide, a graph was drawn of percentage activity against concentration of fungicide in the growth medium. From this graph, the concentrations of fungicide required to achieve 80% activity was estimated. These figures are given in the results table.

[1] = tested on: Aureobasidium pullulans (ATCC 15233); assay: Example 3 liquid culture assay on 24 well plates, solo and 2-way mixtures
Description: (§1) Alternaria tenuissima (DSM 63360), Penicillium chrysogenum (DSM 895), Stachybotrys chartarum (DSM2144), Aspergillus niger (DSM 63263), Aspergillus versicolor (DSM 1943) and Aureobasidium pullulans (ATCC 15233) were separately cultivated on PDA media to […] sporulation. Spore suspensions were produced for each fungi. Spore concentrations of approx. 100.000 spores/ml were used.
(§2) Test method used: liquid culture assay on 24 well plates.
(§3) For solo (i.e. single) ai testing the formulated fungicide (100 ul) was filled into the 24 well plates and 100 ul distilled water was added. Afterwards 800 ul of 0.3% AE media was added to the plate. The spore suspension of the specific fungi was added to this media in advance containing approx. 100,000 spores/ml. The 24 well plates were sealed and incubated at 24° C.
(§4) Dependent on the growth properties of each organisms, the evaluation was done after 3 to 6 days, when the surface of the check well was covered with mycelium. The evaluation was performed by assessing the growth of the fungi related to the check growth. The results are expressed as % activity relative to the check (values of 0-100% growth). Afterwards the results were converted in % O growth inhibition.
(§5) For synergism testing of the 2-way mixtures 100 ul of each fungicide were filled into 24 well plates and 800 ul of 0.3% AE media containing the spore suspension was added. Different ratios of the 2 fungicide rates were tested at the same time.
(§6) For the mixtures of different fungicides the synergism was calculated based on the Colby equation, which is described below: […]
(§7) The fungicidal action to be expected, We, for a given combination of two fungicides can be calculated as follows (see COLBY, S. R. “Calculating synergistic and antagonistic response of herbicide combinations”. Weeds 15, pages 20-22; 1967): We=X+[Y×(100−X)/100] wherein: • X=% activity in the case of treatment with the compound of formula I at rate x, in comparison with untreated control (=0%). • Y=% activity in the case of treatment with a compound of formula II at rate y, in comparison with untreated control. • We=expected activity (% activity in comparison with untreated control) after treatment with the compound of formula I and a compound of formula II at a rate of x+y kg of active ingredient.
(§8) If the activity actually observed is greater than the expected value We (factor observed activity/expected activity >1.2), there is a synergistic effect.

[2] = tested on: Stachybotrys chartarum (DSM2144); assay: as above; conditions: test 006-2005
Description: as §1, §2, §3, §4, §5, §6, §7, §8

[3] = tested on: Alternaria tenuissima (DSM 63360); assay: as above; conditions: test 015-2005
Description: as §1, §2, §3, §4, §5, §6, §7, §8

[4] = tested on: Alternaria tenuissima (DSM 63360); assay: Example 4 liquid culture assay on 24 and 48 well plates, 3 way mixtures; conditions: A. tenuissima
Description: as §1, with “For test 006-2005: Alternaria” for “Alternaria”, “Cladosporium cladosporoides (DSM62121),” for “Stachybotrys chartarum (DSM2144),”, “fungus.” for “fungi.”, “100,000” for “100.000”
(§9) […] Spore suspensions were produced for each fungus. Spore concentrations of approx. 100,000 spores/ml were used.
(§10) Test method used: liquid culture assay on 24 and 48 well plates respectively.
(§11) For testing of the 3 way mixtures each of the formulated fungicide (100 ul) was filled into the 24 and 48 well plates respectively. Afterwards 700 ul of 0.3% AE media was added to the plate. The spore suspension of the specific fungi was added to this media in advance containing approx. 100,000 spores/ml. For testing the solo compounds the equivalent of distilled water was added instead of the formulated fungicide volume of the mixing partners. The plates were then sealed and incubated at 24° C.
as §4, with “%” for “% O”
(§12) For the mixtures of different fungicides the synergism was calculated based on the Colby equation, which is described above.

[5] = tested on: Aspergillus niger (DSM 63263); assay: as above; conditions: A. niger
Description: as §1, with “For test 006-2005: Alternaria” for “Alternaria”, “Cladosporium cladosporoides (DSM62121),” for “Stachybotrys chartarum (DSM2144),”, “fungus.” for “fungi.”, “100,000” for “100.000”
For test 015-2006: Alternaria tenuissima (DSM 63360), Penicillium pinophilum (CBS342.61), Gliocladium virens (DSM1963), Aspergillus niger (DSM 63263), Stachybotrys chartarum (DSM 2144) and Aureobasidium pullulans (ATCC 15233) were separately cultivated on PDA media to […] sporulation. Spore suspensions were produced for each fungus. Spore concentrations of approx. 100,000 spores/ml were used.
as §10, §11
as §4, with “%” for “% O”
as §12

[6] = tested on: Aspergillus versicolor (DSM 1943); assay: as above; conditions: test 006-2005, A. versicolor
Description: as §1, with “For test 006-2005: Alternaria” for “Alternaria”, “Cladosporium cladosporoides (DSM62121),” for “Stachybotrys chartarum (DSM2144),”, “fungus.” for “fungi.”, “100,000” for “100.000”
as §10, §11
as §4, with “%” for “% O”
as §12

[7] = tested on: Stachybotrys chartarum (DSM 2144); assay: as above; conditions: test 015-2005, S. chartarum
Protocol: as §9, §10, §11
as §4, with “%” for “% O”
as §12

## CCCC1COC(Cn2cncn2)(c2ccc(Cl)cc2Cl)O1 (stereo not drawn) [Propiconazole]
Coniophora puteana
  Concentration required for 80% Activity: 1.8 mg/L
[1]; test 006-2005, rate (PPZ) 1.6 mg ai/l
  inh % (PPZ alone): 70%
[1]; test 006-2005, rate (PPZ) 3.12 mg ai/l
  inh % (PPZ alone): 70%
[1]; test 006-2005, rate (PPZ) 12.5 mg ai/l
  inh % (PPZ alone): 70%
[1]; test 015-2005, rate (PPZ) 25 mg ai/l
  inh % (PPZ alone): 50%
[1]; test 015-2005, rate (PPZ) 50 mg ai/l
  inh % (PPZ alone): 70%
[2]; rate (PPZ) 0.8 mg ai/l
  inh % (PPZ alone): 0%
[2]; rate (PPZ) 1.6 mg ai/l
  inh % (PPZ alone): 10%
[2]; rate (PPZ) 3.12 mg ai/l
  inh % (PPZ alone): 10%

## c1ccc2[nH]c(-c3cscn3)nc2c1 [Thiabendazole]
Coniophora puteana
  Concentration required for 80% Activity: >5000 mg/L
[3]; rate (TBZ) 12.5 mg ai/l
  inh % (TBZ alone): 0%
[3]; rate (TBZ) 25 mg ai/l
  inh % (TBZ alone): 0%
[3]; rate (TBZ) 50 mg ai/l
  inh % (TBZ alone): 0%
[3]; rate (TBZ) 100 mg ai/l
  inh % (TBZ alone): 0%
[3]; rate (TBZ) 200 mg ai/l
  inh % (TBZ alone): 0%
[4]; test 006-2005, TBZ 0.2 mg ai/l
  inh % (TBZ alone): 0%
[4]; test 006-2005, TBZ 0.8 mg ai/l
  inh % (TBZ alone): 0%
[4]; test 006-2005, TBZ 1.6 mg ai/l
  inh % (TBZ alone): 0%
[4]; test 015-2005, TBZ 0.2 mg ai/l
  inh % (TBZ alone): 0%
[4]; test 015-2005, TBZ 1.6 mg ai/l
  inh % (TBZ alone): 0%
[4]; test 015-2005, TBZ 3.1 mg ai/l
  inh % (TBZ alone): 0%
[4]; test 015-2005, TBZ 6.25 mg ai/l
  inh % (TBZ alone): 0%
[4]; test 015-2005, TBZ 25 mg ai/l
  inh % (TBZ alone): 0%
[4]; test 015-2005, TBZ 100 mg ai/l
  inh % (TBZ alone): 0%
[5]; test 006-2005, TBZ 0.8 mg ai/l
  inh % (TBZ alone): 0%
[5]; test 015-2005, TBZ 0.2 mg ai/l
  inh % (TBZ alone): 0%
[5]; test 015-2005, TBZ 0.8 mg ai/l
  inh % (TBZ alone): 0%
[6]; TBZ 0.2 mg ai/l
  inh % (TBZ alone): 0%
[6]; TBZ 0.8 mg ai/l
  inh % (TBZ alone): 0%
[6]; TBZ 1.6 mg ai/l
  inh % (TBZ alone): 10%
[7]; TBZ 3.1 mg ai/l, listed as TBZ
  inh % (TBZ alone): 0% and 10%
[7]; TBZ 6.25 mg ai/l
  inh % (TBZ alone): 10%
[7]; TBZ 25 mg ai/l
  inh % (TBZ alone): 30%
